The values below come from article PMC5004293, “Characterization of FRM-36143 as a new γ-secretase modulator for the potential treatment of familial Alzheimer’s disease” (Alzheimer's Research & Therapy, 2016).

Details of data set [1]: method as in PMID 24085193. To be noted: animals; takes 12–14 weeks to appear; cited from earlier work.
The subject of data set [2] is DHCR24. The following applies: cited from earlier work.
The target in data set [3] is T1, DHCR24 (Homo sapiens, UniProt Q15392).
T1 construct: endogenous in cells; host or cells: HepG2 cells
T1 sequence (Q15392 23-516): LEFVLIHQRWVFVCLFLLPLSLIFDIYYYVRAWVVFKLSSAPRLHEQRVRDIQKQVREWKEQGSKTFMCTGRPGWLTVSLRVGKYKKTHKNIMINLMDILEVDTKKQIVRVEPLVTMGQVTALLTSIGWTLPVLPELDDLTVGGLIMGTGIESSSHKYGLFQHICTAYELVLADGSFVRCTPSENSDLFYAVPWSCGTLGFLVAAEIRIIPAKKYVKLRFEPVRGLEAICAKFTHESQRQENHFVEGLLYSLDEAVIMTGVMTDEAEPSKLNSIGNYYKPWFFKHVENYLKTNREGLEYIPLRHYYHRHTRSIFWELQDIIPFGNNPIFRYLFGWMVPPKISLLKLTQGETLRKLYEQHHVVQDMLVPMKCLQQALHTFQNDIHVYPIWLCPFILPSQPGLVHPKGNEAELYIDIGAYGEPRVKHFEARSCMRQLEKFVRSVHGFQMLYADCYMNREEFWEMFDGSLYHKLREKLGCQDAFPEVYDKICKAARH
In words: Desmosterol assay in HepG2 cells. It is filed as cell-based. The protocol: HepG2 cells were grown in Eagle's minimal essential medium (EMEM) containing 10 % fetal bovine serum, penicillin (50 U/mL), and streptomycin (50 ug/mL) and plated at a density of 1 million cells/well in 6-well plates for the experiment. Four to five days after plating, the cells were washed with Hank’s balanced salt solution (HBSS), and compound treatment applied for 2 h in HBSS. At the end of the treatment, cells were collected, washed with PBS, and pelleted. Sterols were extracted from the cell pellet by adding 100 μL PBS and 3 mL ethylacetate (containing an internal standard of 1 mg/mL d-cholesterol). Tubes were vortexed for 20 min and centrifuged at 2000 × g for 20 min at room temperature. The organic phase was dried under a stream of nitrogen at 40 °C and the samples reconstituted in 65 % methanol. Liquid chromatography-tandem mass spectrometry (LC-MS/MS) analysis was performed using a Shimadzu 20-series UFLC (Shimadzu, Kyoto, Japan) and an API 5500 (Applied Biosystems, Foster City, CA, USA) with a Hypersil GOLD column (100X2.1 mM; Thermo Fisher).

The target of data set [4] is T2, Aβ42 (Homo sapiens, UniProt P05067).
T2 construct: purchased AnaSpec
In words: Aβ aggregation assay (thioflavin T). The following applies: 10 μM peptide, 25 °C, 18 h. The protocol:
Aβ peptides (AnaSpec, Fremont, CA, USA) were dissolved at a concentration of 1 mg/mL in hexafluoroisopropanol (HFIP). Peptides were then mixed at different molar ratios. HFIP was evaporated in a SpeedVac without heating for 15 min. Peptides and mixtures were kept on ice and reconstituted in 50 mM Tris–HCl, 1 mM EDTA. Peptides (final concentration: 10 μM) were added to thioflavin T (final concentration: 2.5 μM; AnaSpec) in a black 96-well plate. Aggregation was monitored on a SpectraMax M5 plate reader (Molecular Devices, Inc.) at a constant temperature of 25 °C using excitation/emission of 440 nm/480 nm. Readings were recorded in triplicate every 10 min for a period of 18 h.

Data set [5] concerns Notch processing. Put plainly: Notch reporter assay (HeLa 6xCBF1-Luc, NotchΔE). The format is cell-based, human. To be noted: overnight. As to the method: The wild-type CBF1 binding element was cloned in front of the SV40 promoter-driven luciferase reporter construct of pGL3pro (Promega, Madison, WI, USA) using the following oligonucleotides: • CBF1 Fw (5’→3’): […] • CBF1 Rv (5’→3’): […]
Oligonucleotides were phosphorylated using T4 polynucleotide kinase and annealed (by heating to 90 °C and cooling to room temperature in a buffer containing 0.1 M NaCl). Plasmid pGL3pro was cleaved with BglII and dephosphorylated using alkaline phosphatase. The oligonucleotide pair was then ligated using T4 ligase with the linearized plasmid DNA. A clone containing 6 copies of the CBF1 element in front of the SV40 promoter was chosen. The 6xCBF1-RE/SV40 promoter was excised from pGL3 using XhoI and HindIII, and the fragment transferred to the pGL4.17 [luc2/Neo] vector (Promega) was opened with the same restriction enzymes.
The full length human Notch in plasmid pCMV6-XL5 (Origene, Rockville, MD, USA) was used to amplify a truncated form of Notch (NotchΔE) containing the 20-amino-acid (a.a.) signal sequence followed by 5 a.a. […]
HeLa cells stably transfected with the 6xCBF1-Luc reporter were transiently transfected with the NotchΔE construct (4 μg DNA/10^6 cells) using Lipofectamine 2000 (Thermo Fisher, Waltham, MA, USA) in 6-well plates. […] Chemiluminescence was then read on an EnVision plate reader (Perkin Elmer).

T2 sequence (P05067 672-713 limits assumed): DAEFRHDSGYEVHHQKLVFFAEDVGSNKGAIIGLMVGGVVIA

As for `COc1cc(/C=C2\CCCN([C@@H](C)c3ccc(F)cc3)C2=O)ccc1-n1cnc(C)c1` [E2012], in data set [1], the Lenticular opacity result is on record as “cause lenticular opacity”. Besides, in data set [2], the “Inhibition of DHCR24” value is “inhibit”. Besides, the “Desmosterol induction (change from DMSO)” value in data set [3] (1 μM) is on record as ~ 60 fold. This molecule also registered an IC50 in data set [3] (desmosterol accumulation, 2 h) of 0.063 µM.
As to `COc1nc(/C=C/c2nc3n(n2)CCC[C@H]3c2ccccc2C(F)(F)F)ccc1-n1cnc(C)c1` [E2212], the DHCR24 off-target activity result in data set [2] is “did not have this off-target activity”.
In the case of “Aβ42: Aβ peptide (AnaSpec) used in the aggregation assay”, the “Increase in aggregates over time (thioflavin T fluorescence)” value in data set [4] was above 15 fold.
In data set [5], `C[C@H](NC(=O)[C@@H](O)c1cc(F)cc(F)c1)C(=O)N[C@@H]1C(=O)N(C)c2ccccc2-c2ccccc21` [LY-411,575, reference compound] gave an IC50 of 0.0009 µM.
